Calls of active or inactive are those of the source. The calls are words filed in the database; no cut-off is given here.
Legend:
NCI-H460 [1] = assay: Induction of morphological changes in human NCI-H460 cells assessed as cell shrinkage after 72 hrs by phase contrast microscopic analysis; type: functional, cell-based
NCI-H460 [2] = assay: Cytotoxicity against human NCI-H460 cells at 30 uM after 48 hrs by MTT assay relative to control; type: functional
NCI-H460 [3] = assay: Induction of morphological changes in human NCI-H460 cells assessed as cell detachment after 72 hrs by phase contrast microscopic analysis; type: functional, cell-based
NCI-H460 [4] = assay: Cell cycle arrest in human NCI-H460 cells assessed as accumulation at sub-G1 phase at 5 uM after 24 hrs by propidium iodide staining based flow cytometry (reference value: 0.99%); type: functional
NCI-H460 [5] = assay: Cell cycle arrest in human NCI-H460 cells assessed as accumulation at S phase at 1 uM after 24 hrs by propidium iodide staining based flow cytometry (reference value: 9.93%); type: functional
NCI-H460 [6] = assay: Induction of apoptosis in human NCI-H460 cells assessed as increase in early apoptotic cells after 72 hrs by Annexin V-alexa fluor 488/propidium iodide staining based flow cytometry; type: functional, cell-based
NCI-H460 [7] = assay: Induction of reactive oxygen species generation in human NCI-H460 cells after 24 hrs by DCFDA staining based fluorescence microscopic analysis; type: functional, cell-based
HCT-15 = assay: Cytotoxicity against human HCT15 cells at 30 uM after 48 hrs by MTT assay relative to control; type: functional
NCI-H460 [8] = assay: Induction of apoptosis in human NCI-H460 cells assessed as reduction in cell number at 0.25 to 10 uM after 72 hrs by acridine orange/ethidium bromide staining based fluorescence microscopic analysis; type: functional
NCI-H460 [9] = assay: Induction of apoptosis in human NCI-H460 cells assessed as early apoptotic cells at 5 uM after 72 hrs by Annexin V-alexa fluor 488/propidium iodide staining based flow cytometry (reference value: 0.77%); type: functional
NCI-H460 [10] = assay: Cell cycle arrest in human NCI-H460 cells assessed as accumulation at S phase at 10 uM after 24 hrs by propidium iodide staining based flow cytometry (reference value: 9.93%); type: functional
HCT-116 = assay: Cytotoxicity against human HCT116 cells after 72 hrs by MTT assay; type: functional, cell-based; conditions: HCT-116, 72 h
A549 [11] = assay: Cytotoxicity against human A549 cells at 30 uM after 48 hrs by MTT assay relative to control; type: functional
NCI-H460 [12] = assay: Cytotoxicity against human NCI-H460 cells after 72 hrs by MTT assay; type: functional, cell-based; conditions: NCI-H460, 72 h
NCI-H460 [13] = assay: Induction of mitochondrial membrane potential loss in human NCI-H460 cells assessed as depolarized cell population at 5 uM after 72 hrs by JC1 staining based flow cytometry (reference value: 11.63%); type: functional
NCI-H460 [14] = assay: Induction of apoptosis in human NCI-H460 cells assessed as early apoptotic cells at 1 uM after 72 hrs by Annexin V-alexa fluor 488/propidium iodide staining based flow cytometry (reference value: 0.77%); type: functional
NCI-H460 [15] = assay: Induction of apoptosis in human NCI-H460 cells assessed as chromatin condensation at 0.25 to 10 uM after 72 hrs by acridine orange/ethidium bromide staining based fluorescence microscopic analysis; type: functional, cell-based
A549 [16] = assay: Cytotoxicity against human A549 cells after 72 hrs by MTT assay; type: functional, cell-based; conditions: A549, 72 h
NCI-H460 [17] = assay: Induction of apoptosis in human NCI-H460 cells assessed as viable cells at 1 uM after 72 hrs by Annexin V-alexa fluor 488/propidium iodide staining based flow cytometry (reference value: 98.55%); type: functional; conditions: NCI-H460, 72 h, read-out: Activity
NCI-H460 [18] = assay: Induction of apoptosis in human NCI-H460 cells assessed as viable cells at 5 uM after 72 hrs by Annexin V-alexa fluor 488/propidium iodide staining based flow cytometry (reference value: 98.55%); type: functional; conditions: NCI-H460, 72 h, read-out: Activity
NCI-H460 [19] = assay: Induction of mitochondrial membrane potential loss in human NCI-H460 cells assessed as depolarized cell population at 1 uM after 72 hrs by JC1 staining based flow cytometry (reference value: 11.63%); type: functional
NCI-H460 [20] = assay: Induction of apoptosis in human NCI-H460 cells assessed as cell shrinkage at 0.25 to 10 uM after 72 hrs by acridine orange/ethidium bromide staining based fluorescence microscopic analysis; type: functional
NCI-H460 [21] = assay: Induction of apoptosis in human NCI-H460 cells assessed as viable cells at 10 uM after 72 hrs by Annexin V-alexa fluor 488/propidium iodide staining based flow cytometry (reference value: 98.55%); type: functional; conditions: NCI-H460, 72 h, read-out: Activity
NCI-H460 [22] = assay: Induction of apoptosis in human NCI-H460 cells assessed as increase in late apoptotic cells after 72 hrs by Annexin V-alexa fluor 488/propidium iodide staining based flow cytometry; type: functional, cell-based
NCI-H460 [23] = assay: Induction of apoptosis in human NCI-H460 cells assessed as late apoptotic cells at 10 uM after 72 hrs by Annexin V-alexa fluor 488/propidium iodide staining based flow cytometry (reference value: 0.34%); type: functional
NCI-H460 [24] = assay: Induction of apoptosis in human NCI-H460 cells assessed as necrotic cells at 2.5 uM after 72 hrs by Annexin V-alexa fluor 488/propidium iodide staining based flow cytometry (reference value: 0.34%); type: functional
NCI-H460 [25] = assay: Cell cycle arrest in human NCI-H460 cells assessed as accumulation at S phase at 5 uM after 24 hrs by propidium iodide staining based flow cytometry (reference value: 9.93%); type: functional

CCOC(=O)/C(=C(\N)C(=O)c1ccccc1)C1C(=O)N(C)c2ccc(F)cc21 (configuration not stated)
Activity (NCI-H460 [1]): Dose-dependent effect | Activity (NCI-H460 [2]): >50% | Activity (NCI-H460 [3]): Dose-dependent effect | Activity (NCI-H460 [4]): 11.94% | Activity (NCI-H460 [5]): 6.55% | Activity (NCI-H460 [6]): Dose-dependent effect | Activity (NCI-H460 [7]): Dose-dependent effect | Activity (HCT-15): >50% | Activity (NCI-H460 [8]): Active | Activity (NCI-H460 [9]): 35.42% | Activity (NCI-H460 [10]): 3.42% | IC50 (HCT-116): 5.14 µM | Activity (A549 [11]): >50% | IC50 (NCI-H460 [12]): 1.4 µM | Activity (NCI-H460 [13]): 83.8% | Activity (NCI-H460 [14]): 8.72% | Activity (NCI-H460 [15]): Active | IC50 (A549 [16]): 3.51 µM | viability at 1 µM (NCI-H460 [17]): 87.9% | viability at 5 µM (NCI-H460 [18]): 61.1% | Activity (NCI-H460 [19]): 42.95% | Activity (NCI-H460 [20]): Active | viability at 10 µM (NCI-H460 [21]): 40.4% | Activity (NCI-H460 [22]): Dose-dependent effect | Activity (NCI-H460 [23]): 1.78% | Activity (NCI-H460 [24]): 0.34% | Activity (NCI-H460 [25]): 3.59%

— ChEMBL document CHEMBL4261621, “Synthesis of enamino-2-oxindoles via conjugate addition between α-azido ketones and 3-alkenyl oxindoles: Cytotoxicity evaluation and apoptosis inducing studies” (Bioorg Med Chem Lett, 2018)
